Structures are written as SMILES. Several values for one entry are separate records, joined by “and”; a condition that tells them apart may be missing. Identical values can stand only once. Toxic doses and inconclusive results are not listed.

These results are taken from PubChem BioAssay AID330 (DTP/NCI, 2004).

In the experiment the test system is P388 leukemia ip, CD2F1 mice, survival T/C. Nature of the experiment: NCI In Vivo Anticancer Drug Screen. Data for tumor model P388 Leukemia (intraperitoneal) in CD2F1 (CDF1) mice. The settings on record: endpoint: median survival time, higher = longer survival. In outline: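 Mice carrying the transplanted tumor received test compound or vehicle. Survival was recorded in each group, and the value is the treated-group measurement divided by that of the vehicle-treated control group.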

[1] abbreviates: dose: 200.0 mg/kg/injection, schedule: Q01DX005 (ip), vehicle: saline with Tween-80.
The mark [2] stands for this setting: dose: 15.0 mg/kg/injection, schedule: Q01DX005 (ip), vehicle: saline with Tween-80.
The mark [3] stands for this setting: dose: 60.0 mg/kg/injection, schedule: Q01DX005 (ip), vehicle: saline with Tween-80.
[4] abbreviates: dose: 60.0 mg/kg/injection, schedule: Q01DX005 (ip), vehicle: Klucel (hydroxypropylcellulose) (HPC).
Where [5] appears, read: dose: 120.0 mg/kg/injection, schedule: Q01DX005 (ip), vehicle: Klucel (hydroxypropylcellulose) (HPC).
Where [6] appears, read: dose: 240.0 mg/kg/injection, schedule: Q01DX005 (ip), vehicle: Klucel (hydroxypropylcellulose) (HPC).
Setting [7] is: dose: 25.0 mg/kg/injection, schedule: Q01DX009 (ip), vehicle: Klucel (hydroxypropylcellulose) (HPC).
Setting [8] is: dose: 50.0 mg/kg/injection, schedule: Q01DX009 (ip), vehicle: Klucel (hydroxypropylcellulose) (HPC).
Where [9] appears, read: dose: 100.0 mg/kg/injection, schedule: Q01DX009 (ip), vehicle: Klucel (hydroxypropylcellulose) (HPC).
Setting [10] is: dose: 200.0 mg/kg/injection, schedule: Q01DX009 (ip), vehicle: Klucel (hydroxypropylcellulose) (HPC).
Setting [11] is: dose: 100.0 mg/kg/injection, schedule: Q04DX002 (ip), vehicle: saline with Tween-80.

For `Cc1cc(=O)n(-c2ccc([N+](=O)[O-])cc2Cl)c(C)c1C(=O)O`, the T/C reads like this: (dose: 50.0 mg/kg/injection, schedule: Q01DX005 (ip), vehicle: saline with Tween-80) 103 % of control; (dose: 100.0 mg/kg/injection, schedule: Q01DX005 (ip), vehicle: saline with Tween-80) 96 % of control; under setting [1], 106 % of control.

In the case of `COc1cc(Br)c(-c2coc3c(OC)c(OC)ccc3c2=O)cc1OC`, the T/C is 89 % of control under setting [2]; 88 % of control (dose: 30.0 mg/kg/injection, schedule: Q01DX005 (ip), vehicle: saline with Tween-80); 86 % of control under setting [3].

Regarding `c1ccc2c(NCCCCNc3c4ccccc4nc4ccccc34)c3ccccc3nc2c1`, the T/C by setting is: (dose: 0.62 mg/kg/injection, schedule: Q## X009 (ip), vehicle: lactic acid) 101 % of control; (dose: 1.25 mg/kg/injection, schedule: Q## X009 (ip), vehicle: lactic acid) 102 % of control; (dose: 2.5 mg/kg/injection, schedule: Q## X009 (ip), vehicle: lactic acid) 104 % of control; (dose: 5.0 mg/kg/injection, schedule: Q## X009 (ip), vehicle: lactic acid) 104 % of control; (dose: 10.0 mg/kg/injection, schedule: Q## X009 (ip), vehicle: lactic acid) 110 % of control.

`CNC(=O)OCCC(OC(=O)NC)C1CCC2C3CC=C4CC(OC(=O)NC)CCC4(C)C3CCC12C` (centres undefined): the T/C is 99 % of control under setting [4], 93 % of control under setting [5] and 100 % of control under setting [6].

In the case of `CC(C)=CCC1(O)C(=O)c2ccccc2C1(O)C(=O)O` (centres undefined), the T/C was 101 % of control under setting [7], 100 % of control under setting [8], 107 % of control under setting [9] and 99 % of control under setting [10].

As for `O=C1c2ccccc2-c2c1c1ccccc1c(=O)n2Cc1ccco1`, the T/C reads like this: (dose: 0.75 mg/kg/injection, schedule: Q01DX005 (ip), vehicle: saline with Tween-80) 100 % of control; (dose: 1.5 mg/kg/injection, schedule: Q01DX005 (ip), vehicle: saline with Tween-80) 100 % of control; (dose: 3.0 mg/kg/injection, schedule: Q01DX005 (ip), vehicle: saline with Tween-80) 103 % of control.

On to `CCn1c(=O)c(C#N)c2n(CC)c3ccccc3n2c1=O`, for which the T/C is 100 % of control (dose: 3.75 mg/kg/injection, schedule: Q01DX005 (ip), vehicle: saline with Tween-80); 100 % of control (dose: 7.5 mg/kg/injection, schedule: Q01DX005 (ip), vehicle: saline with Tween-80); 100 % of control under setting [2].

As to `ClCCN(CCCl)c1ccc(N=Cc2ccccc2)cc1`, the T/C was 159 % of control and 167 % of control (dose: 1.56 mg/kg/injection, schedule: Q01DX009 (ip), vehicle: saline with Tween-80); 179 % of control and 205 % of control (dose: 3.12 mg/kg/injection, schedule: Q01DX009 (ip), vehicle: saline with Tween-80); 230 % of control (dose: 6.25 mg/kg/injection, schedule: Q01DX009 (ip), vehicle: saline with Tween-80).

Take `NCCSc1cc(O)c2c(c1N)C(=O)c1ccccc1C2=O`: the T/C reads like this: (dose: 12.5 mg/kg/injection, schedule: Q01DX009 (ip), vehicle: Klucel (hydroxypropylcellulose) (HPC)) 106 % of control; under setting [7], 104 % of control; under setting [8], 106 % of control; under setting [9], 105 % of control.

Regarding `CN(C)C12CCC(c3ccccc31)c1ccccc12`, the T/C is 105 % of control under setting [3]; 97 % of control (dose: 120.0 mg/kg/injection, schedule: Q01DX005 (ip), vehicle: saline with Tween-80); 104 % of control (dose: 240.0 mg/kg/injection, schedule: Q01DX005 (ip), vehicle: saline with Tween-80).

Regarding `CC(C)COC1CCc2ncccc2O1` (centres undefined), the T/C is 104 % of control (dose: 50.0 mg/kg/injection, schedule: Q01DX009 (ip), vehicle: saline); 104 % of control (dose: 100.0 mg/kg/injection, schedule: Q01DX009 (ip), vehicle: saline); 103 % of control (dose: 200.0 mg/kg/injection, schedule: Q01DX009 (ip), vehicle: saline).

As to `O=C1c2ccccc2C(=O)N1CN(CS(=O)(=O)c1ccccc1)c1ccccc1`, the T/C runs as follows: under setting [4], 98 % of control; under setting [5], 88 % of control; under setting [6], 86 % of control.

For `C=C(c1ccccc1)C1(O)CCCCC1N(C)C` (centres undefined), the T/C is 102 % of control (dose: 25.0 mg/kg/injection, schedule: Q04DX002 (ip), vehicle: saline with Tween-80); 100 % of control (dose: 50.0 mg/kg/injection, schedule: Q04DX002 (ip), vehicle: saline with Tween-80); 94 % of control under setting [11].

Regarding `O=C1CC(O)(c2ccc(-c3ccccc3)cc2)CS1` (centres undefined), the T/C by setting is: (dose: 100.0 mg/kg/injection, schedule: Q04DX003 (ip), vehicle: Klucel (hydroxypropylcellulose) (HPC)) 101 % of control; (dose: 200.0 mg/kg/injection, schedule: Q04DX003 (ip), vehicle: Klucel (hydroxypropylcellulose) (HPC)) 99 % of control; (dose: 400.0 mg/kg/injection, schedule: Q04DX003 (ip), vehicle: Klucel (hydroxypropylcellulose) (HPC)) 92 % of control.

For `O=C(COCC(=O)N/N=C/c1ccc(Cl)cc1)N/N=C/c1ccc(Cl)cc1`, the T/C (dose: 6.25 mg/kg/injection, schedule: Q01DX005 (ip), vehicle: saline with Tween-80) is 95 % of control; the T/C (dose: 12.5 mg/kg/injection, schedule: Q01DX005 (ip), vehicle: saline with Tween-80) is 95 % of control; the T/C under setting [1] was 95 % of control.

Consider `COC(=O)N1CC2C=CC1C(Cl)(C#N)C2` (centres undefined), for which the T/C under setting [8] was 101 % of control, the T/C under setting [9] is 90 % of control and the T/C under setting [10] is 106 % of control.

As to `O=C1c2ccccc2CCCC12OC2c1ccccn1` (centres undefined), the T/C under setting [7] is 98 % of control, the T/C under setting [8] was 106 % of control and the T/C under setting [9] was 98 % of control.

On to `Clc1ccc(C2=Nc3ccccc3SC(c3ccco3)C2)cc1Cl` (centres undefined), for which the T/C is 100 % of control under setting [11]; 96 % of control (dose: 200.0 mg/kg/injection, schedule: Q04DX002 (ip), vehicle: saline with Tween-80); 102 % of control (dose: 400.0 mg/kg/injection, schedule: Q04DX002 (ip), vehicle: saline with Tween-80).

In the case of `O=C(Cc1nc2ccccc2[nH]1)NNC(=S)NC1CCCCC1`, the T/C runs as follows: (dose: 50.0 mg/kg/injection, schedule: Q01DX005 (ip), vehicle: Klucel (hydroxypropylcellulose) (HPC)) 87 % of control; (dose: 100.0 mg/kg/injection, schedule: Q01DX005 (ip), vehicle: Klucel (hydroxypropylcellulose) (HPC)) 88 % of control.

Take `CCOC(OCC)N(C)C`: the T/C was 95 % of control (dose: 60.0 mg/kg/injection, schedule: Q01DX005 (ip), vehicle: saline); 100 % of control (dose: 120.0 mg/kg/injection, schedule: Q01DX005 (ip), vehicle: saline); 93 % of control (dose: 240.0 mg/kg/injection, schedule: Q01DX005 (ip), vehicle: saline).

With `COC(=O)[C@@]1(O)CC(OC)=CC1=O`, the T/C runs as follows: (dose: 5.0 mg/kg/injection, schedule: Q01DX005 (ip), vehicle: Klucel (hydroxypropylcellulose) (HPC)) 93 % of control; (dose: 10.0 mg/kg/injection, schedule: Q01DX005 (ip), vehicle: Klucel (hydroxypropylcellulose) (HPC)) 95 % of control; (dose: 20.0 mg/kg/injection, schedule: Q01DX005 (ip), vehicle: Klucel (hydroxypropylcellulose) (HPC)) 100 % of control; (dose: 40.0 mg/kg/injection, schedule: Q01DX005 (ip), vehicle: Klucel (hydroxypropylcellulose) (HPC)) 93 % of control; (dose: 80.0 mg/kg/injection, schedule: Q01DX005 (ip), vehicle: Klucel (hydroxypropylcellulose) (HPC)) 98 % of control.

With `CCOC(=O)c1c(C)c2c(n1C)CCc1c-2nc(N)[nH]c1=O`, the T/C by setting is: under setting [8], 97 % of control; under setting [9], 97 % of control; under setting [10], 88 % of control.

Regarding `CC(=O)NC1C(Nc2ccc(S(=O)(=O)Nc3cc(C)nc(C)n3)cc2)OC(CO)C(O)C1O` (centres undefined), the T/C was 108 % of control (dose: 50.0 mg/kg/injection, schedule: Q01DX005 (ip), vehicle: saline); 98 % of control (dose: 100.0 mg/kg/injection, schedule: Q01DX005 (ip), vehicle: saline); 101 % of control (dose: 200.0 mg/kg/injection, schedule: Q01DX005 (ip), vehicle: saline).
